From ChEMBL document CHEMBL5505993, “Identification of a ferritinophagy inducer via sinomenine modification for the treatment of colorectal cancer” (Eur J Med Chem, 2024)
pIC50: −log10 of the molar value. Calls of active or inactive are those of the source. No cut-off for these calls is given here.

What was measured:
[1] = test system: HCT-116; assay: Antitumor activity against human HCT-116 cells xenografted in BALB/c mouse assessed as presence of pyknotic nucleus at 60 mg/kg,ip administrated daily for 14 days by hematoxylin and eosin staining based microscopic analysis; type: functional, organism-based; details: time 14.0 day
[2] = test system: HCT-116; assay: Induction of ferritin autophagy in human HCT-116 cells assessed as upregulation of NCOA4 protein expression at 20 uM incubated for 12 hrs by immunoprecipitation assay; type: functional, cell-based
[3] = test system: HCT-116; assay: Cytotoxicity against human HCT-116 cells assessed as inhibition of cell growth incubated for 48 hrs by CCK-8 assay; type: functional, cell-based; details: HCT-116, 48 h
[4] = test system: HCT-116; assay: Induction of ferroptosis in human HCT-116 cells assessed as increase in intracellular lipid ROS accumulation at 20 uM incubated for 12 hrs in presence of ferroptosis inhibitor, Ferrostatin-1 by C11 BODIPY probe based flow cytometry; type: functional, cell-based
[5] = Toxicity in BALB/c mouse xenografted with human HCT-116 cells assessed as histopathological changes in liver at 60 mg/kg,ip administrated daily for 14 days by hematoxylin and eosin staining based microscopic analysis; type: organism-based; details: in vivo, 336 h, time 14 day

Structure (SMILES): C=C(Cl)C(=O)NCCCCCCCCCCCC(=O)Oc1c(OC)ccc2c1[C@@]13CCN(C)[C@@H](C2)[C@H]1C=C(OC)C(=O)C3
- Activity [1]: Active
- Activity [2]: inactive
- pIC50 [3]: 5.23
- Activity [4]: Active
- Activity [5]: Non-Toxic
